Literature values, collected in patent US9682051B2, “Acyclovir and meloxicam combination therapy for functional somatic syndromes” (INNOVATIVE MED CONCEPTS, LLC, priority 2012, dated 2017).

Test system: fibromyalgia patients
Settings: valacyclovir alone

## CC(C)[C@H](N)C(=O)OCCOCn1cnc2c(=O)[nH]c(N)nc21 [valacyclovir]
  Outcome of treating fibromyalgia patients: not successful
